Substitutions are numbered along the chain they refer to. Read-outs that look alike come from different tables or passages of the source.
Tests used:
sigma receptor σ2 = sigma receptor σ2 (UniProt Q5BJF2); test: Off-target interaction determined by the PDSP; assay type: binding, human; conditions: read-out: Off-target, receptor (h, unless noted) (Ki, μM): σ2
hA1AR = target: T1, hA1AR (Homo sapiens, UniProt P30542); test: Radioligand binding in membranes of CHO cells expressing hA1AR, [3H]N6-R-phenylisopropyladenosine; conditions: (h); Ki; read-out: A1AR % inhibition or Ki
T1 construct: expressed in transfected cells; host or cells: CHO
T1 sequence (P30542 1-326): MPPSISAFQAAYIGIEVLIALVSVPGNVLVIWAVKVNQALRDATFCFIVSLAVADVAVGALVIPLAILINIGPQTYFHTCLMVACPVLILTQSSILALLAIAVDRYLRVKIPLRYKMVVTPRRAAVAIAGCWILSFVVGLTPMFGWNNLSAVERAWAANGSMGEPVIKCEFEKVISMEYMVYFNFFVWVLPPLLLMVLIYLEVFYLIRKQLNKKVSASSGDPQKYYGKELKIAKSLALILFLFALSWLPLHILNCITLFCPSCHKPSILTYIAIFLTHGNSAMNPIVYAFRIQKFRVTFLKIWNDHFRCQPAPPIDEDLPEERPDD

hA2AAR = target: T2, hA2AAR (Homo sapiens, UniProt P29274); test: Radioligand binding in membranes of HEK293 cells expressing hA2AAR; conditions: read-out: A2AAR % inhibition; for Ki: (h), values without % sign (Ki)
T2 construct: expressed in transfected cells; host or cells: HEK293

hA3AR = target: T3, hA3AR (Homo sapiens, UniProt P0DMS8); test: Radioligand binding in membranes of CHO cells expressing hA3AR
T3 construct: expressed in transfected cells; host or cells: CHO
T3 sequence (P0DMS8 1-318): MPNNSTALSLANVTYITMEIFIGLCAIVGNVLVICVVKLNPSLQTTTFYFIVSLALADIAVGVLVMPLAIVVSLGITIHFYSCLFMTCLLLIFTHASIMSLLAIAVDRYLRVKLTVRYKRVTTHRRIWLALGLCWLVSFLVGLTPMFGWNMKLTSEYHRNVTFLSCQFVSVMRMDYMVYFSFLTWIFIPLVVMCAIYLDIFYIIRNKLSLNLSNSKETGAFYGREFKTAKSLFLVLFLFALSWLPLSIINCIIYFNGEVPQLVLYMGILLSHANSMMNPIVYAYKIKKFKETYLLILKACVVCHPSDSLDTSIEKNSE

histamine receptor H1 = histamine receptor H1 (Homo sapiens, UniProt P35367); test: Off-target interaction determined by the PDSP; assay type: binding; conditions: read-out: Off-target, receptor (h, unless noted) (Ki, μM): H1
rA2AAR = rA2AAR (Rattus norvegicus, UniProt P30543); test: Adenosine receptor binding, rA2AAR; conditions: (r); values without % sign (Ki); read-out: A2AAR % inhibition (converted)
rA3AR = rA3AR (Rattus norvegicus, UniProt P28647); test: Adenosine receptor binding, rA3AR; conditions: (r), read-out: A3AR % inhibition or Ki (converted)
mA1AR [1] = target: T4, mA1AR (Mus musculus, UniProt Q60612); test: Adenosine receptor binding, mA1AR; conditions: for Ki: (m), read-out: A1AR % inhibition or Ki (converted); for Binding selectivity for mA1AR: compared to mA3AR
T4 sequence (Q60612 1-326): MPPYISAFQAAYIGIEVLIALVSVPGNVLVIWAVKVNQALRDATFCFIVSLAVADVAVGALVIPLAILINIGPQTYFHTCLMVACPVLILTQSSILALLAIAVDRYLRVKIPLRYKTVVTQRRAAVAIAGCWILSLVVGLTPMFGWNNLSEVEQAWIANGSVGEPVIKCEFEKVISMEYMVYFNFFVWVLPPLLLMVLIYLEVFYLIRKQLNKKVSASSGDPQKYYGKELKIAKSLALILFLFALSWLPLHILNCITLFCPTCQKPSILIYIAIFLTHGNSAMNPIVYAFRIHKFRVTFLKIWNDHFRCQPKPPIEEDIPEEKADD

mA3AR [2] = target: T5, mA3AR (Mus musculus, UniProt Q61618); test: Adenosine receptor binding, mA3AR; conditions: (m); Ki; read-out: A3AR % inhibition or Ki (converted)
T5 sequence (Q61618 1-319): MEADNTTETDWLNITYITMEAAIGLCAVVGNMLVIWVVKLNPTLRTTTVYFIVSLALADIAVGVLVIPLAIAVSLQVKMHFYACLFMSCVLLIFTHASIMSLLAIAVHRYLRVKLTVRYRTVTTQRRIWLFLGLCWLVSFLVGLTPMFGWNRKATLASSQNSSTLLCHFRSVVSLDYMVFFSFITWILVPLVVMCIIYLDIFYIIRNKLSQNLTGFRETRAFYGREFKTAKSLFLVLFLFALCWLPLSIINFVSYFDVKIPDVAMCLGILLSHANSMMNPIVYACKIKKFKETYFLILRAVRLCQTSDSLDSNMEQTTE

rA1AR = target: T6, rA1AR (Rattus norvegicus, UniProt P25099); test: Adenosine receptor binding, rA1AR; conditions: (r), read-out: A1AR % inhibition or Ki (converted)
T6 sequence (P25099 1-326): T4 sequence (Q60612 1-326) with E151V, A155D, I157R, E316D, I319L, D325E

wild-type C57BL/6J mice [3] = test: Locomotor activity by telemetry after ip dosing; assay type: in vivo, mouse; conditions: 3 mg/kg ip; average from dosing to 60 min; mean±SD
Protocol: (§1) Compounds were dosed ip. Tb and activity were measured by telemetry and the averages from dosing to 60 min were calculated. […] Data are for the highest dose used and are mean±SD from 3 to 22 mice/group (usually 5-7). P values are unpaired t-Test vs vehicle-treated controls assayed simultaneously. Vehicle data are mean±SD from all (n=83) vehicle treated mice.

[4] = Plasma protein binding at 10 μM; assay type: in vitro ADME, human; conditions: unbound percent ± standard deviation
Protocol: (§2) Plasma protein binding in human plasma, mouse plasma, and rat plasma was determined. Verapamil and warfarin served as positive controls. The results are expressed as unbound percent±standard deviation.

mice = test: Tail suspension test, immobility time; assay type: in vivo, mouse; conditions: 0.3 mg/kg i.p., 1 hour after administration, 6 min suspension
Protocol: 1 hour after administration of compounds, the mice were individually suspended by their tails for 6 minutes, and the average amount of time the mice were immobile was determined. […]

wild-type C57BL/6J mice [5] = test: Hypothermia (Tb by telemetry) after ip dosing; assay type: in vivo, mouse; conditions: 3 mg/kg ip; average from dosing to 60 min; mean±SD
Protocol: as §1

[6] = Stability in simulated gastric fluid; assay type: physicochemical; conditions: pH 1.60, 37° C., after 120 min
[7] = Plasma protein binding at 10 μM; assay type: in vitro ADME, rat; conditions: unbound percent ± standard deviation
Protocol: as §2

[8] = Plasma protein binding at 10 μM; assay type: in vitro ADME, mouse; conditions: unbound percent ± standard deviation
Protocol: as §2

mA3AR [9] = target: T5, mA3AR; test: Guanine nucleotide ([35S]GTPγS) binding assay; assay type: biochemical; conditions: effect of 10 μM test compound as % of 10 μM 16
Protocol: (§3) cLogP was calculated using ChemDraw Professional, v. 16.0. Binding selectivity for mA1Ar is expressed in terms of fold, compared to mA3AR (Data from Table 1).

mA1AR [10] = target: T4, mA1AR; test: Guanine nucleotide ([35S]GTPγS) binding assay; assay type: biochemical
Protocol: as §3

[11] = target: dopamine transporter (DAT) (Homo sapiens, UniProt Q01959); test: Off-target interaction determined by the PDSP; assay type: binding; conditions: read-out: Off-target, receptor (h, unless noted) (Ki, μM): DAT
[12] = target: norepinephrine transporter (NET) (Homo sapiens, UniProt P23975); test: Off-target interaction determined by the PDSP; assay type: binding; conditions: read-out: Off-target, receptor (h, unless noted) (Ki, μM): NET
serotonin receptor 5HT2C = target: T7, serotonin receptor 5HT2C (Homo sapiens, UniProt P28335); test: Off-target interaction determined by the PDSP; assay type: binding; conditions: read-out: Off-target, receptor (h, unless noted) (Ki, μM): 5HT2C
T7 sequence (P28335 33-458): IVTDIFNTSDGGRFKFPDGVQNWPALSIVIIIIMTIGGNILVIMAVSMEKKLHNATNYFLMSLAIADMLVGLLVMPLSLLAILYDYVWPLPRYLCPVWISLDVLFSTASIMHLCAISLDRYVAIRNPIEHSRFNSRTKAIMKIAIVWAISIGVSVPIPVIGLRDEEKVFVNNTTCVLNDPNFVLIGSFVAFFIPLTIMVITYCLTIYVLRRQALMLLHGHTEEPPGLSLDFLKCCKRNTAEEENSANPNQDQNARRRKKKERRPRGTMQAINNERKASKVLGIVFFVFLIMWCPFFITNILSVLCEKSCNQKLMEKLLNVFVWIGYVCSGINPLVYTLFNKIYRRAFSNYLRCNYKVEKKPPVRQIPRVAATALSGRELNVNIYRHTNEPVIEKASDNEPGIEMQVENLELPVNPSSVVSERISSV

serotonin receptor 5HT2B = serotonin receptor 5HT2B (Homo sapiens, UniProt P41595); test: Off-target interaction determined by the PDSP; assay type: binding; conditions: read-out: Off-target, receptor (h, unless noted) (Ki, μM): 5HT2B
sigma receptor σ1 = sigma receptor σ1 (Homo sapiens, UniProt Q99720); test: Off-target interaction determined by the PDSP; assay type: binding; conditions: read-out: Off-target, receptor (h, unless noted) (Ki, μM): σ1
[13] = target: rat brain benzodiazepine receptors (BZP); test: Off-target interaction determined by the PDSP; assay type: binding; conditions: read-out: Off-target, receptor (h, unless noted) (Ki, μM): BZP (r)

T2 sequence (P29274 whole entry): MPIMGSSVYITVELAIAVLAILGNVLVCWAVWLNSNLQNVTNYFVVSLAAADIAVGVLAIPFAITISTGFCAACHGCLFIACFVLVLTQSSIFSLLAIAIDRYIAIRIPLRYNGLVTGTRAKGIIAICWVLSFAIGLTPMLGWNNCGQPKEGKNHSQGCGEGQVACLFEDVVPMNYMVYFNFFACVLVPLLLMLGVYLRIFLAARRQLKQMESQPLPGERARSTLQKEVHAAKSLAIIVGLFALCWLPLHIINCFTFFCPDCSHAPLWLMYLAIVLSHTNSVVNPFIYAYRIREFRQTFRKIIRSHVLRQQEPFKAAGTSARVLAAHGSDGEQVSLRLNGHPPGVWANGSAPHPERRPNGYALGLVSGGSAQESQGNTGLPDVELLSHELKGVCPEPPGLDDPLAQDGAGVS
Chain of rA2AAR (P30543 whole entry): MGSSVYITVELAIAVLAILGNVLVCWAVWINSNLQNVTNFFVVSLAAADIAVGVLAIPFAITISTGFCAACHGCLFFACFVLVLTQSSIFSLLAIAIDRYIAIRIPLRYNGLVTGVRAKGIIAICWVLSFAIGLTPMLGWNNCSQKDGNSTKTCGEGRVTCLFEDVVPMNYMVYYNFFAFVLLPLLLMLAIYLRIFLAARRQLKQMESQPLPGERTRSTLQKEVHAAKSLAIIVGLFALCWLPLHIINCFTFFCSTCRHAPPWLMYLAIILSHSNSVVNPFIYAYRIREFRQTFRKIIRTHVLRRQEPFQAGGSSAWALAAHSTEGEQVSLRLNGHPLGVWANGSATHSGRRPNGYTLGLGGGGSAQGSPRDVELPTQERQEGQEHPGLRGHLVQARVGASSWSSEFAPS
Chain of norepinephrine transporter (NET) (P23975 whole entry): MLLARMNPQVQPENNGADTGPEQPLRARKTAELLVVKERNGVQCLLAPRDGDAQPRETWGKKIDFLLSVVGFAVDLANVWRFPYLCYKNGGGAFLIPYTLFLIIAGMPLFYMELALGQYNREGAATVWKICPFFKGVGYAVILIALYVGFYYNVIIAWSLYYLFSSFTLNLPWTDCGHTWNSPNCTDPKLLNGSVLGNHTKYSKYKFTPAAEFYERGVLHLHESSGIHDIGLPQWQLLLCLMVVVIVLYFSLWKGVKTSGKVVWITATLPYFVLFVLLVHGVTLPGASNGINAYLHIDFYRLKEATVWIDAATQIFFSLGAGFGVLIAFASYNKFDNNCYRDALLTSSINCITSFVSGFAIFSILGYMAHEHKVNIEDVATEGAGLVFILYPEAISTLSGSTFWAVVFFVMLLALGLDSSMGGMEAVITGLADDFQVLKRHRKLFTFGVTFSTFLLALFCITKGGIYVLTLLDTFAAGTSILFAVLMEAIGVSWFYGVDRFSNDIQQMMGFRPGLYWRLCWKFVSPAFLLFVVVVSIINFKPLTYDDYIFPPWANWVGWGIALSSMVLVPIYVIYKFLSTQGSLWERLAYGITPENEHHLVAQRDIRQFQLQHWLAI
Chain of sigma receptor σ1 (Q99720 whole entry): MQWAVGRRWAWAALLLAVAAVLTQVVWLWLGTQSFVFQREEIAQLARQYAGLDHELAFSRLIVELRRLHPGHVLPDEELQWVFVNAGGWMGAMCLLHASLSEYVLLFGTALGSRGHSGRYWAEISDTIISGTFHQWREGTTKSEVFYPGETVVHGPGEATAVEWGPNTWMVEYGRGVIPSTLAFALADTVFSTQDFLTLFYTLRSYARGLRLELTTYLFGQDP
Chain of rA3AR (P28647 whole entry): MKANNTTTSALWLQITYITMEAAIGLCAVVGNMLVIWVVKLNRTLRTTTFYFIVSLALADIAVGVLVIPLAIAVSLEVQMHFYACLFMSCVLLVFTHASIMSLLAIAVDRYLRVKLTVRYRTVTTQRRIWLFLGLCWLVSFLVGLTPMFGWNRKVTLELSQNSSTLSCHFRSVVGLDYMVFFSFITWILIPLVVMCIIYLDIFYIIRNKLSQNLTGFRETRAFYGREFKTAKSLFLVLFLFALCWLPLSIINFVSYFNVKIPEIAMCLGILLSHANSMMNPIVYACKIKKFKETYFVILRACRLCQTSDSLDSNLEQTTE
Chain of histamine receptor H1 (P35367 whole entry): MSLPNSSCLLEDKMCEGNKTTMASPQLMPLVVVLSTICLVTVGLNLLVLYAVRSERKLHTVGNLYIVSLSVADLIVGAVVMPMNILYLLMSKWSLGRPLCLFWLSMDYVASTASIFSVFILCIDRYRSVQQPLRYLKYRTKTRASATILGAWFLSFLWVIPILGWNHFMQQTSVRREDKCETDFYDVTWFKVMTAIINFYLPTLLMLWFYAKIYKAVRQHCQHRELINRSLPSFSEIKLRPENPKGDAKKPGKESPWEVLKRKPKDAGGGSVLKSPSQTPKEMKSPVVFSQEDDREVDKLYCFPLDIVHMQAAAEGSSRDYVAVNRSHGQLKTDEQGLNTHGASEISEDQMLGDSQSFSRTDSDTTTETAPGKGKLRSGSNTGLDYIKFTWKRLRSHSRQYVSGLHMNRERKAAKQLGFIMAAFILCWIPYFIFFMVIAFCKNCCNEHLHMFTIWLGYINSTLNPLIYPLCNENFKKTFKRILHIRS
Chain of serotonin receptor 5HT2B (P41595 whole entry): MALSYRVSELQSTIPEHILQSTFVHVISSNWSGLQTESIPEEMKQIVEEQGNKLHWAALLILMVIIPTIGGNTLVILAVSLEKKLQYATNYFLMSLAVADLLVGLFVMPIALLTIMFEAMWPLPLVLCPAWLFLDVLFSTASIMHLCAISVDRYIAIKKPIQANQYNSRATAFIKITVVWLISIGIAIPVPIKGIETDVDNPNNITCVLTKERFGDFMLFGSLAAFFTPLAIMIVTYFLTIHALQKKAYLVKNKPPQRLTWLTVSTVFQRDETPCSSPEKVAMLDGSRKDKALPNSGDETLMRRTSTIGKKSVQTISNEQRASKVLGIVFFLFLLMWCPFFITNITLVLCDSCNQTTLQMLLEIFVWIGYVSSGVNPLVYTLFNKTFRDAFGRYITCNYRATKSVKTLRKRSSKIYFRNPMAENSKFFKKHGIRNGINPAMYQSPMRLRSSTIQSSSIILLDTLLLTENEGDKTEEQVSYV
Chain of dopamine transporter (DAT) (Q01959 whole entry): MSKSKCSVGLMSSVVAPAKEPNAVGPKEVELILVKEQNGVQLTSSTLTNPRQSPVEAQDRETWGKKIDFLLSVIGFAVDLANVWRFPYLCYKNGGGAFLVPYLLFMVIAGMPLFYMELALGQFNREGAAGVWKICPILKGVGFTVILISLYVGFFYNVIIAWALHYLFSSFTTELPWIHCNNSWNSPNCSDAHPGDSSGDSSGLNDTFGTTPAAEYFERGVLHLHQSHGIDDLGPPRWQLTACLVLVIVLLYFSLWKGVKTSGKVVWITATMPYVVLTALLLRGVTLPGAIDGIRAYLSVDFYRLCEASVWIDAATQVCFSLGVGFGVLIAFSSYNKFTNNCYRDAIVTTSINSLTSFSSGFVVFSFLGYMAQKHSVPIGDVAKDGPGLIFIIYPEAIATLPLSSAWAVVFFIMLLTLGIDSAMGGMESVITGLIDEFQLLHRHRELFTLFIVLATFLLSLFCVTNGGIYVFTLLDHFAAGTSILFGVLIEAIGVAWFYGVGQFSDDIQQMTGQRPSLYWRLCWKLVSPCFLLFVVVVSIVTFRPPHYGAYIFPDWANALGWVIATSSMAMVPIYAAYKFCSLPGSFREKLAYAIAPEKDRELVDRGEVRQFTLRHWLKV

Row | Compound | Ki (sigma receptor σ2) | Ki (hA1AR) | Ki (hA2AAR) | Ki (rA2AAR) | Ki (hA3AR) | Ki (mA1AR [1]) | Ki (mA3AR [2]) | Activity (counts) (wild-type C57BL/6J mice [3]) | human, % free [4] | Tb (° C.) (wild-type C57BL/6J mice [5]) | rat, % free [7] | mouse, % free [8] | Binding selectivity for mA1AR (mA1AR [1]) | Emax at 10 µM (mA3AR [9]) | Emax at 10 µM (mA1AR [10]) | also measured
1 | Nc1ncnc2c1ncn2[C@@H]1O[C@H](C(=O)NC2CC2)[C@@H](O)[C@H]1O [Compound 17, reference compound] | 4.35 µM | 1.9 nM | 50 ± 10 nM |  |  |  |  |  |  |  |  |  |  |  |  | Ki (hA3AR; (h), Ki, read-out: A3AR % inhibition or Ki): 180 ± 50 nM; Ki (histamine receptor H1): 7.88 µM
2 | OC[C@H]1O[C@@H](n2cnc3c(NC(C4CC4)C4CC4)ncnc32)[C@H](O)[C@@H]1O [Compound 8] |  | 0.85 ± 0.27 nM | 1470 ± 380 nM | 1370 nM | 41.3 ± 5.3 nM |  |  |  |  |  |  |  |  |  |  | 
3 | O[C@@H]1[C@H](O)[C@@H](CCl)O[C@H]1n1cnc2c(NC3CC4CCC3C4)ncnc21 (some centres unmarked) [Compound 3, reference compound] |  |  | > 10000 nM | 477 nM | 915 ± 299 nM | 0.14 nM | 424 nM |  |  |  |  |  |  |  |  | Ki (rA3AR): 282 nM; Ki (rA1AR): 0.34 nM
4 | OC[C@H]1O[C@@H](n2cnc3c(NC(C4CCC4)C4CCC4)nc(Cl)nc32)[C@H](O)C1O (stereo in doubt) [Compound 12, (2R,3R,4R,5R)-2-(2-Chloro-6-((dicyclobutylmethyl)amino)-9H-purin-9-yl)-5-(hydroxymethyl)tetrahydrofuran-3,4-diol] |  |  |  |  |  |  |  | 13.5 ± 3.5 counts | 5.81 ± 0.39% | 35.5 ± 0.8 °C | 4.64 ± 0.06% | 4.74 ± 0.67% | (1000) fold | 63 ± 5% | 90 ± 19% | average immobility time relative to mice treated with 10 mg/kg of fluoxetine (mice): approximately ⅔; average immobility time relative to the control group of mice (mice): approximately ½; initial amount present in simulated gastric fluid [6]: 100%
5 | OC[C@H]1O[C@@H](n2cnc3c(NC(C4CCC4)C4CCC4)ncnc32)[C@H](O)[C@@H]1O [Compound 9, (2R,3R,4R,5R)-2-(6-((Dicyclobutylmethyl)amino)-9H-purin-9-yl)-5-(hydroxymethyl)tetrahydrofuran-3,4-diol] |  | 2.14 ± 0.52 nM | 3550 ± 440 nM |  |  |  | 897 nM |  |  |  |  |  |  |  |  | Ki [11]: 1.78 µM; Ki [12]: 4.82 µM
6 | OC[C@@]12C[C@@H]1[C@@H](n1cnc3c(NC(C4CCC4)C4CCC4)ncnc31)[C@H](O)[C@@H]2O [Compound 24, (1R,2R,3S,4R,5S)-4-(6-((Dicyclobutylmethyl)amino)-9H-purin-9-yl)-1-(hydroxymethyl)bicyclo[3.1.0]hexane-2,3-diol] | 0.753 µM | 22.7 ± 3 nM |  |  |  | 0.53 nM | 918 nM | 18.1 ± 6.8 counts | 14.6 ± 1.3% | 36.2 ± 0.4 °C | 17.8 ± 1.2% | 27.5 ± 1.7% | (1730) fold | 92 ± 3% | 97 ± 11% | inhibition at 10 µM (hA2AAR): 34 ± 1%; inhibition at 10 µM (hA3AR; read-out: A3AR % inhibition or Ki): 51 ± 6%; Ki (serotonin receptor 5HT2C): 1.32 µM; Ki (serotonin receptor 5HT2B): 0.214 µM; Ki (sigma receptor σ1): 1.79 µM; Ki [13]: 4.08 µM

Source: US12378248B2 (The United States of America, as represented by the …, priority 2018, dated 2025)
